“And” between values parts separate entries of the source, which are not always exact repeats. Equal values may be shown once.
Columns and labels:
[1] = Plasma stability, mouse plasma; assay type: in vitro ADME; conditions: up to 120 min, read-out: Plasma stability, t1/2 (min), mouse
Method: The protocols and reagents for the plasma protein binding assay and metabolic stability testing in human and mouse liver microsomes are detailed in our previous report. Briefly, metabolic stability of compounds was assessed at a single concentration (5 μM) at t = 0, 10, 30, and at t = 45 min. The stability of compounds was tested in human and mouse microsomes (ThermoFisher Scientific). Compounds were tested in triplicate with or without NADPH wells as a negative control for cytochrome P450 metabolism. In addition to hepatic metabolism, compounds were also subjected to degradation/modification by enzymes in human (VWR International) and mouse (Biomedica, CZ) plasma for t = 0, 30, 60, and at t = 120 min. Each assay included a substrate with known activity as a positive control. Time points were analyzed by LC/MS/MS. The peak area for the parent compound is compared to the time zero sample in order to assess the amount of remaining compound.

[2] = biological target: T1, PPARγ (Homo sapiens, UniProt P37231); experiment: PPARγ agonist reporter assay; assay type: cell-based; conditions: 10 µM MI891
T1 construct: expressed in transfected cells
T1 sequence (P37231 238-505 limits assumed, species assumed): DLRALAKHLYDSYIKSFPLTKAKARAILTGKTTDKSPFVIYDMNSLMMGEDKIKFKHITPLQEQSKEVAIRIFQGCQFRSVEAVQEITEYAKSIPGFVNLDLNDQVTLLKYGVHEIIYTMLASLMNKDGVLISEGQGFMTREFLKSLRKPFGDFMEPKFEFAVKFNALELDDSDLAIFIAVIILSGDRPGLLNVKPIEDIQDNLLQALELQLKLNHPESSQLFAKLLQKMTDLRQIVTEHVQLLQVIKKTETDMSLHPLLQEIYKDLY
Method: For the farnesoid X receptor (FXR) luciferase gene reporter assay, the full-length expression vector was paired with pFXRE-luc luciferase construct. The p1A1-luc construct was used in the aryl hydrocarbon receptor (AhR) assays with pRL-TK for normalization. Gal4-LXR-α/β, and Gal4-PPAR-γ constructs were used with the pGAL4 UAS-luc construct. For the VDR assay, expression vector pSG5-hVDR together with pVDRE-luc constructs was used. Firefly and Renilla luciferase activities were analyzed using a Dual reporter assay (Promega). For the nuclear receptor assays, prototype ligands were used at the following concentrations: Calcitriol for VDR (100 nM), GW3965 for LXRα and LXRβ (10 μM), 6-OCA for FXR (1 μM), fenofibrate for PPARα (10 μM), estradiol for ERα and β (10 μM), rosiglitazone for PPARγ (10 μM), 3-MC for AhR (5 μM), and TCPOBOP for mCAR (10 μM). Detailed descriptions and protocols are detailed in our recent publication. , […]
hydrophobic interactions. (F) Superimposed diagram of PXR bound with agonist (SJPYT-328) and antagonists (MI891 and SJPYT-331) to differentiate the agonist and antagonist interactions with helix 12 (H12). The interaction of the agonist with PXR residue (L428) is circled. (G) Extended nuclear receptor selectivity profile. […]

[3] = biological target: CDK9/cyclin T1(h) (Homo sapiens, UniProt P50750); experiment: Off-target kinase panel; assay type: biochemical; conditions: MI891 @ 1 µM
Method: (§1) To evaluate the selectivity of MI891, an off-target profiling study was performed using a panel of 58 kinases.

[4] = biological target: DRAK1(h) (Homo sapiens, UniProt Q9UEE5); experiment: Off-target kinase panel; assay type: biochemical; conditions: MI891 @ 1 µM
Sequence of DRAK1(h) (Q9UEE5 whole entry): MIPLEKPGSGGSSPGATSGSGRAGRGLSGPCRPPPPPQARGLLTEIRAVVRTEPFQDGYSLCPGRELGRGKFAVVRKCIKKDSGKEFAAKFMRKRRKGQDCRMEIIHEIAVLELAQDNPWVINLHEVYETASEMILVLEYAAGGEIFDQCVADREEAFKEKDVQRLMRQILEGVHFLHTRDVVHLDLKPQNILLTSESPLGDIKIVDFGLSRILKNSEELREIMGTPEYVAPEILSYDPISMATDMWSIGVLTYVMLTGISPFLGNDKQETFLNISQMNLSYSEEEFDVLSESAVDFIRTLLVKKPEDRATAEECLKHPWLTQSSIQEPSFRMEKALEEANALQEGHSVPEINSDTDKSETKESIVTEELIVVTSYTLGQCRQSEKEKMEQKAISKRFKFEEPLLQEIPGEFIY
Method: as §1

[5] = biological target: T2, JAK2(h) (Homo sapiens, UniProt O60674); experiment: Off-target kinase panel; assay type: biochemical; conditions: MI891 @ 1 µM
T2 construct: purchased Eurofins (Millipore) KinaseProfiler, inferred from the naming style
Method: as §1

[6] = biological target: T3, MLK1(h) (Homo sapiens, UniProt P80192); experiment: Off-target kinase panel; assay type: biochemical; conditions: MI891 @ 1 µM
T3 construct: purchased Eurofins (Millipore) KinaseProfiler, inferred from the naming style
T3 sequence (P80192 whole entry): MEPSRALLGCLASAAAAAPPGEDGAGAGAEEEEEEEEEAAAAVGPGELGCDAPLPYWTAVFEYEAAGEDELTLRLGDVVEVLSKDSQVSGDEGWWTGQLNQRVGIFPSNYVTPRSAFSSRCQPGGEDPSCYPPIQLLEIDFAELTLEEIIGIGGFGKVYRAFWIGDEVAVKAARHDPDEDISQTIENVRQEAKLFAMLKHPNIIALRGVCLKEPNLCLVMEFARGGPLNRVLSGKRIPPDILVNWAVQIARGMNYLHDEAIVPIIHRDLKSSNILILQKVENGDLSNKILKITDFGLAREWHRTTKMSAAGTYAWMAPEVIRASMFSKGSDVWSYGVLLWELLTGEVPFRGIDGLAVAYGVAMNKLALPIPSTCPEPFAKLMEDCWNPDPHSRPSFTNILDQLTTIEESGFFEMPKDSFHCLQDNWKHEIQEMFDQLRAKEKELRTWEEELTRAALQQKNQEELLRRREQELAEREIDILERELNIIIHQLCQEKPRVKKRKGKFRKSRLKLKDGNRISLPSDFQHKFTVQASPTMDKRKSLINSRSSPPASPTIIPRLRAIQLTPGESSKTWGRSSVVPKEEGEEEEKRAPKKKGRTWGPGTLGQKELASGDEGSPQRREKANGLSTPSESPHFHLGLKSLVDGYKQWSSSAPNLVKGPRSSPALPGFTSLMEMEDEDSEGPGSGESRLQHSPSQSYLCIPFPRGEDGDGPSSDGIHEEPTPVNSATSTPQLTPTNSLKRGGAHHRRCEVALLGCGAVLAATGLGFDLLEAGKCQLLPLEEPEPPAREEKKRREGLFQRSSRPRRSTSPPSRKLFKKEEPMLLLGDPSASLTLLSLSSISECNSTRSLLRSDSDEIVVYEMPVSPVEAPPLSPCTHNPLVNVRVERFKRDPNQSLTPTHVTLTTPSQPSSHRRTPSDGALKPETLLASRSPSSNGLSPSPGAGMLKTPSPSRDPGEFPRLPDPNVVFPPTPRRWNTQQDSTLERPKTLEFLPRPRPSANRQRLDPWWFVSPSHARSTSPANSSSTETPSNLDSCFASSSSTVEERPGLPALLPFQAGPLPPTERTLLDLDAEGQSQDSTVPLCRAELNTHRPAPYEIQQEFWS
Method: as §1

[7] = biological target: T4, PDGFRβ(h) (Homo sapiens, UniProt P09619); experiment: Off-target kinase panel; assay type: biochemical; conditions: MI891 @ 1 µM
T4 construct: purchased Eurofins (Millipore) KinaseProfiler, inferred from the naming style
T4 sequence (P09619 33-1106): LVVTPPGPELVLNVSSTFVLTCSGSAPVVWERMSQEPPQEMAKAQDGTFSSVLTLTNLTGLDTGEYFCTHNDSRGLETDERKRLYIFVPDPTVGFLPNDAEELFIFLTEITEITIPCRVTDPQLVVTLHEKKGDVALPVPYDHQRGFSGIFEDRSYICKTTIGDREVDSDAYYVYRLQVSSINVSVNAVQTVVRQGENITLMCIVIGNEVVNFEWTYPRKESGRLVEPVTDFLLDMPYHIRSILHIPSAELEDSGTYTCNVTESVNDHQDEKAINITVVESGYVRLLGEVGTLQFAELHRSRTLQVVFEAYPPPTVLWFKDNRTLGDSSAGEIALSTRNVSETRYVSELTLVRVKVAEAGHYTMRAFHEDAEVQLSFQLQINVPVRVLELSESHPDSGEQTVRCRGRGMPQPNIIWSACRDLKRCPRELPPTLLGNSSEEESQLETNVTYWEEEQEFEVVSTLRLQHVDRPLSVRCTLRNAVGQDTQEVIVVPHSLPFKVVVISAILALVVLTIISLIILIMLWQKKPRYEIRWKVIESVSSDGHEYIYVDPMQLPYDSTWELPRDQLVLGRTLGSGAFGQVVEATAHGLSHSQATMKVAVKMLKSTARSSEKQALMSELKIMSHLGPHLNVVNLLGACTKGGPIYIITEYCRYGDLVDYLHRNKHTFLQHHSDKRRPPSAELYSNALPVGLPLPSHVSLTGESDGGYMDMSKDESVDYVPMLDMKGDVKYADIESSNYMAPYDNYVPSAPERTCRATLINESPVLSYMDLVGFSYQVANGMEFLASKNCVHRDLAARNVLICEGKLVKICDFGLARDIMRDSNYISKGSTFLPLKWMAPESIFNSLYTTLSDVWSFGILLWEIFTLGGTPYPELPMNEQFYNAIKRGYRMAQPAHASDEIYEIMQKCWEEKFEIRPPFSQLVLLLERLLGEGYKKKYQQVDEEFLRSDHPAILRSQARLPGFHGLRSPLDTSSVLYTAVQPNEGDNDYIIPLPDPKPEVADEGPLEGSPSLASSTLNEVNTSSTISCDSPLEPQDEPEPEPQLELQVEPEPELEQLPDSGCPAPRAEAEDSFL
Method: as §1

[8] = biological target: T5, PKCα(h) (Homo sapiens, UniProt P17252); experiment: Off-target kinase panel; assay type: biochemical; conditions: MI891 @ 1 µM
T5 construct: purchased Eurofins (Millipore) KinaseProfiler, inferred from the naming style
Method: as §1

[9] = biological target: T6, SRPK1(h) (Homo sapiens, UniProt Q96SB4); experiment: Off-target kinase panel; assay type: biochemical; conditions: MI891 @ 1 µM
T6 construct: purchased Eurofins (Millipore) KinaseProfiler, inferred from the naming style
T6 sequence (Q96SB4 whole entry): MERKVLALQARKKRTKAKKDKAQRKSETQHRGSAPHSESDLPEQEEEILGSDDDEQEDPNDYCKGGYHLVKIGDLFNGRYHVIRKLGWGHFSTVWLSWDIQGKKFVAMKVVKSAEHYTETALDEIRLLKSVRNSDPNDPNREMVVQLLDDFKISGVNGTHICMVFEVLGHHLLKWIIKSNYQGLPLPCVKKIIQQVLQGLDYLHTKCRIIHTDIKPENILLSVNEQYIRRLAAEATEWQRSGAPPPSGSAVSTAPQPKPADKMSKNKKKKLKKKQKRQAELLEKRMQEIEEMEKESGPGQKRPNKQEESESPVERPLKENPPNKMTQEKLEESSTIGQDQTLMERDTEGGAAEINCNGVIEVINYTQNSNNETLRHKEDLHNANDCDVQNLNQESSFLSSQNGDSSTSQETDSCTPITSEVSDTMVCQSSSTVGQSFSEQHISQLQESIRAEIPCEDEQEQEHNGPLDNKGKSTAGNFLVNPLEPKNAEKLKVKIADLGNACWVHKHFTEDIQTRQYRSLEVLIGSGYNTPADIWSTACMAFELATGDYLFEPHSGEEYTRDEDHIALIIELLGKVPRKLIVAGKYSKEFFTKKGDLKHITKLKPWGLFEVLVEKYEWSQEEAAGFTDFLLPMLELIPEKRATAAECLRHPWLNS
Method: as §1

[10] = biological target: c-RAF(h) (Homo sapiens, UniProt P04049); experiment: Off-target kinase panel; assay type: biochemical; conditions: MI891 @ 1 µM
Sequence of c-RAF(h) (P04049 whole entry): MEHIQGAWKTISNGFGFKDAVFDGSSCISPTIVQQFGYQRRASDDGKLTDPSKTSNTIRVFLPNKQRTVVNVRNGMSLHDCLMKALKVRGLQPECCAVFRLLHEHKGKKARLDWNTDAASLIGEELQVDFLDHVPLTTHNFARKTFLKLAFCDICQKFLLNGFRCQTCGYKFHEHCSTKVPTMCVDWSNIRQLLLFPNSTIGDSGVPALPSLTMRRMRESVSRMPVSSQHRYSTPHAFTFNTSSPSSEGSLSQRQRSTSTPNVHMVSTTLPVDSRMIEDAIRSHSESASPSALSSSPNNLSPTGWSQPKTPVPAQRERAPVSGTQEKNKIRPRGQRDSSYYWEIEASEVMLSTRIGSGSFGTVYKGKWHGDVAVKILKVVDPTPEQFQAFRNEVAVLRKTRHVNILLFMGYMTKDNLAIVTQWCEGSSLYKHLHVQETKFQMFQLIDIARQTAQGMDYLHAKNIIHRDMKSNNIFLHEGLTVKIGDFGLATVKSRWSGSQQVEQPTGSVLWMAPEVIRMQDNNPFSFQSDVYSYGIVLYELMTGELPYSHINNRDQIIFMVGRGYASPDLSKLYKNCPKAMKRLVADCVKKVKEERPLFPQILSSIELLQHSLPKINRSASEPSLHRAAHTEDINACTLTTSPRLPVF
Method: as §1

[11] = biological target: T7, PXR (Homo sapiens, UniProt O75469); experiment: cell-based
T7 sequence (O75469 1-434): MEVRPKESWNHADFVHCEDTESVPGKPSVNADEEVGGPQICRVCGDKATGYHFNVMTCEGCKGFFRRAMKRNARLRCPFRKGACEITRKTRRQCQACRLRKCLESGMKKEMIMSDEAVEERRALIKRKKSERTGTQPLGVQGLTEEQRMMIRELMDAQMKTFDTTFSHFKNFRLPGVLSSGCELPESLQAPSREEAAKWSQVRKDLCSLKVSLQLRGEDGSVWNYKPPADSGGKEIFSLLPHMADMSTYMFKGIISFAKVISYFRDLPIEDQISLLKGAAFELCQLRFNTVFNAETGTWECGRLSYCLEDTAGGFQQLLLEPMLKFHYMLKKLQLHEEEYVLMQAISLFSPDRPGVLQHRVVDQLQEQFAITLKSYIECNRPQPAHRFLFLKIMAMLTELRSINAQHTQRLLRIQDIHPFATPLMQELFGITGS
Method: The PXR activity was assessed as the PXR-dependent transcriptional activation using the construct. […] The control vector pRL-TK (Promega) constitutively expresses Renilla luciferase. […] Transient transfection experiments followed published protocols used in our laboratory and described before. , Luciferase reporter assays were conducted to evaluate interactions with PXR or CAR and their variants in HepG2, or COS-1. Cells were seeded at a density of 40,000 cells/cm^2 in 48-well plates (ThermoFisher Scientific) and maintained at 37 °C in a humidified atmosphere with 5% CO2. […] Following seeding, HepG2 cells were transfected with 150 ng/well of a luciferase reporter construct and 100 ng/well of a nuclear receptor expression vector using Lipofectamine 3000 (ThermoFisher Scientific) and with pRL-TK (30 ng/well) serving as the normalization control. After 24 h, cells were treated with test compounds for 24 h before cell lysis and subsequent firefly and Renilla luciferase activity analysis using the Dual-Glo Luciferase Assay System (Promega). […] The activities of test compounds were normalized to the respective controls to determine % activation or inhibition.

NC(=O)c1cc(Cn2cc(-c3c(-c4ccc(Cl)cc4)nc4c(F)cc(F)cn34)nn2)ccc1Cl [Compound 11, 2-Chloro-5-((4-(2-(4-chlorophenyl)-6,8-difluoroimidazo[1,2-a]pyridin-3-yl)-1H-1,2,3-triazol-1-yl)methyl)-benzamide]
half-life [1]: > 120 min
agonistic effect on PPARγ [2]: no agonistic effects
activity at 1 µM [3]: 124%
activity at 1 µM [4]: 105%
activity at 1 µM [5]: 101%
activity at 1 µM [6]: 104%
activity at 1 µM [7]: 86%
activity at 1 µM [8]: 97%
activity at 1 µM [9]: 98%
activity at 1 µM [10]: 101%
IC50 ([11]; IC50, antagonistic activity for rifampicin (1 μM)-activated PXR, rifampicin 1 μM, HepG2): 0.378 µM
IC50 ([11]; IC50, antagonistic mode, MI891 + Rif-5 μM, rifampicin 5 μM, HepG2): 3.5 µM
IC50 ([11]; PXR antagonism: PXR inhibition (IC50, μM), antagonist mode with 10 μM rifampicin, mean ± SD, n = 3): 3.8 µM and 3.76 µM

Reference: PMC12305494, “Discovery of PXR Antagonist MI891 and PXR Degrader MI1013 and Their Roles in Hepatic Gene Regulation” (Journal of Medicinal Chemistry, 2025)
